Patent US10537609B2, “MUC1 decoy peptides for treatment and prevention of bacterial infections” (priority 2014, dated 2020)

Assays:
[1] = test system: P. aeruginosa (Pa) adhesion to A549 cells; experiment: Bacterial adhesion assay: Pa preincubated with test material, then adhesion to A549 cell monolayers; conditions: for blocking of Pa adhesion to ECs by free monosaccharides: Pa preincubated 30 min with 5, 10 or 25 mM, separately or in combination (FIG. 10); for reduction of Pa adhesion: Pa preincubated 30 min with shed MUC1-ED preparation, adhesion to fresh A549 monolayers, compared with respective controls (FIG. 11)
[2] = test system: Pseudomonas aeruginosa lung infection; experiment: Mouse survival following Pseudomonas aeruginosa lung infection; format: in vivo, BALB/c mice; conditions: Pa intranasally at LD90 (2.0×10^7 CFU/mouse); MUC1-ED 2.5 μg/mouse, cefepime 1.0 μg/mouse; n=7/group
Description: FIG. 14. Effect of E. coli MUC1-ED With or Without Cefepime on Mouse Survival Following Pseudomonas aeruginosa Lung Infection. Pseudomonas aeruginosa was administered intranasally to BALB/c mice at an LD90 (2.0×10^7 CFU/mouse) with PBS control or E. coli-expressed MUC1-ED (2.5 μg/mouse). Simultaneously, PBS or cefepime (1.0 μg/mouse) was administered intraperitoneally, and mouse survival was measured daily (n=7/group).
P. aeruginosa was administered intranasally to groups of seven BALB/c mice at an LD90 (2.0×10^7 CFU/mouse). The control group (group #1) received PBS intraperitoneally as therapy; group #2 received MUC1-ED (2.5 μg/mouse) intraperitoneally; group #3 received cefepime (1.0 μg/mouse) intraperitoneally; group #4 received MUC1-ED (2.5 μg/mouse) and cefepime (1.0 μg/mouse) simultaneously, intraperitoneally. The MUC1-ED was E. coli-expressed deglycosylated peptide having the amino acid sequence set forth in SEQ ID NO:2.

[3] = test system: Pa lung infection; experiment: Mouse model of Pa lung infection, Pa CFU in BALF and lungs; conditions: Pa preincubated with MUC1-ED; 10^5 CFU/mouse i.t.; 48 h and 72 h post-challenge; vs PBS control
[4] = test system: MUC1-NEU1 association; conditions: A549 cells preincubated 30 min with 5.0 μM, then 10 ng/ml Pa flagellin 30 min

Compound	blocking of Pa adhesion to ECs by free monosaccharides [1]	reduction of Pa adhesion [1]	other results
O=C[C@H](O)[C@@H](O)[C@@H](O)[C@H](O)CO [galactose, reference compound]	None of these monosaccharides, either separately or in combination, blocked Pa adhesion to ECs		
MUC1-ED from E. coli transformed with pMUC1: deglycosylated form of MUC1-ED prepared by transformation of Escherichia coli with a MUC1 expression plasmid (pMUC1); SEQ ID NO:2 per b204		93%	survival over seven days [2]: ~45%; number of Pa recovered from BALF (CFU) [3]: reduced the number of Pa recovered; number of Pa recovered from lungs (CFU) [3]: reduced the number of Pa recovered; maximum inhibition of Pa adhesion ([1]; comparison in the discussion, single repeat vs MUC1-ED containing 15 repeats): > 90%
MUC1-ED: shed MUC1 ectodomain in airway EC culture supernates			MUC1-ED concentrations capable of inhibiting Pa adhesion in vitro ([1]; shed MUC1-ED in EC culture supernates (FIGS. 9A, 9B)): ≤ 0.63 μg/m1
CO/N=C(\C(=O)N[C@@H]1C(=O)N2C(C(=O)[O-])=C(C[N+]3(C)CCCC3)CS[C@H]12)c1csc(N)n1 [cefepime, reference compound]			survival over seven days [2]: ~62.5%
MUC1-ED from tunicamycin-treated ECs: MUC1-ED from supernates of airway ECs cultured with the N-glycosylation inhibitor tunicamycin		did not reduce Pa adhesion	
MUC1-ED from GalNAc-O-bn-treated ECs: MUC1-ED from supernates of airway ECs cultured with the O-glycosylation inhibitor benzyl-N-acetyl-α-galactosaminide		88%	
CC(=O)N[C@H]1C(O)O[C@H](CO)[C@@H](O)[C@@H]1O (some centres unmarked) [N-acetylglucosamine, reference compound]	None of these monosaccharides, either separately or in combination, blocked Pa adhesion to ECs		
N#CC(=C(/N)Sc1ccccc1N)/C(C#N)=C(\N)Sc1ccccc1N [U0126]			effect on MUC1-NEU1 co-immunoprecipitation [4]: failed to alter MUC1-NEU1 co-immunoprecipitation
CC(=O)N[C@H]1C(O)O[C@H](CO)[C@H](O)[C@@H]1O (some centres unmarked) [N-acetylgalactosamine, reference compound]	None of these monosaccharides, either separately or in combination, blocked Pa adhesion to ECs		
desialylated MUC1-ED from Ad-NEU1-infected ECs: MUC1-ED prepared from culture supernates of airway ECs infected with Ad-NEU1		~65%	
